The source of these data is patent US10626100B2, “Selective HDAC6 inhibitors” (The Trustees of Columbia University in the City of New York, priority 2013, dated 2020).

Each structure is given as a SMILES string. “Also recorded” adds a separate entry of the source.

The subject of data set [1] is acetylated alpha-tubulin and acetylated histone H3 in LNCaP (human prostate cancer cells). The data set is described as follows: Accumulation of acetylated proteins in LNCaP cells (western blot). It is filed as cell-based. Particulars: LNCaP cells, FIG. 2. The procedure: FIG. 2. Blot showing accumulation of acetylated alpha-tubulin and acetylated histone H3 in LNCaP (human prostate cancer cells) cultured with compounds 8 or 11. GADPH used as loading control.
FIG. 5. Western blots of acetylated alpha-tubulin (Acet-Tub) and acetylated histone H3 (Acet-H3) in HFS (normal) and LNCaP (transformed) cells treated with compound 8 at 8, 16, 32, and 64 μM for 24 h. Western blots of GAPDH and total histone H3 (Total-H3) are loading controls.
(§1) Recombinant HDAC1 and HDAC6 are used to evaluate the selective inhibitory potency of each compound. Cell based assays: Normal cells (Human Foreskin Fibroblast cells), LNCaP (human prostate cancer cells), MCF-7 (human breast cancer cells, A549 (human adenocarcinoma of lung cells) and ARP-1 (human multiple myeloma cells) are used in these assays. Cells were cultured for up to 72 hr without and with the potential HDAC6-selective inhibitor. SAHA was used as a control. Cell number and cell viability were determined by enumeration. Proteins were extracted from cells and assayed for accumulation of acetylated tubulin and acetylated histones. All methods are described in Namdar et al., PNAS, 2010, 107:20003-8. In vivo animal studies: Potential HDAC6 inhibitor compounds are further assayed by administration to mice for up to 5 days with daily injections. Animals are sacrificed and tissues are analyzed for accumulation of acetylated tubulin and acetylated histones.

For the next data set, the target named is T1, HDAC6 (Homo sapiens, UniProt Q9UBN7).
T1 sequence (Q9UBN7 1-1215): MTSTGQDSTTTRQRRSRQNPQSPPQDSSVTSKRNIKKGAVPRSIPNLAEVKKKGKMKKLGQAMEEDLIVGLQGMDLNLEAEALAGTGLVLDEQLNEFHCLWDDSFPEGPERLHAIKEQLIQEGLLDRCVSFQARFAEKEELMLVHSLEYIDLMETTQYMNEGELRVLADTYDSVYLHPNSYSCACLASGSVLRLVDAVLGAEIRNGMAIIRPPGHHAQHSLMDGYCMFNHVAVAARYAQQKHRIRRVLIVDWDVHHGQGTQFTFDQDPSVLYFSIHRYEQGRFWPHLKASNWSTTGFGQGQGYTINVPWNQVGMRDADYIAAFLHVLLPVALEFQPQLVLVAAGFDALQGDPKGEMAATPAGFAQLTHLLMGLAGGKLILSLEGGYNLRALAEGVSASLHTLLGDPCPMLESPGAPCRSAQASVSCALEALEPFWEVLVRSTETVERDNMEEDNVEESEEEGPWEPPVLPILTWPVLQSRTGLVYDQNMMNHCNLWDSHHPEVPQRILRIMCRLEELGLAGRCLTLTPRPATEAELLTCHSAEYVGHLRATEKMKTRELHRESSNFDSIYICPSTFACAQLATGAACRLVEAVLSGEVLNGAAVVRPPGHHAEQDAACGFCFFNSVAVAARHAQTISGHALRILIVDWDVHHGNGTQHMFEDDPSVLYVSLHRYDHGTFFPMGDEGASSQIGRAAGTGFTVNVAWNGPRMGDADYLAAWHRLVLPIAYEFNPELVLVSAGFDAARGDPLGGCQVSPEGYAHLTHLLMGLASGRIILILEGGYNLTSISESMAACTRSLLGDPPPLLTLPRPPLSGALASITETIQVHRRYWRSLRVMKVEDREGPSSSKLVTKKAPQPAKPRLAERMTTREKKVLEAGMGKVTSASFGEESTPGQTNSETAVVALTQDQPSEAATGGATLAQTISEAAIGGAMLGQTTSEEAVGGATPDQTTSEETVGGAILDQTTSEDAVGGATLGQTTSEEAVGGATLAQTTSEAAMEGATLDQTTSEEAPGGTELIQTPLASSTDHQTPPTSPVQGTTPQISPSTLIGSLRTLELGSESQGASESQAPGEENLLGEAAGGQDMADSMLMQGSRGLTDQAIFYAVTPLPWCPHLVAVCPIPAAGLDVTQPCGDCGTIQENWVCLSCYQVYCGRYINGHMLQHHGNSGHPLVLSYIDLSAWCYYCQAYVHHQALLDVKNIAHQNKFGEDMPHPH
The data set is described as follows: Inhibition of recombinant HDAC6. The conditions noted are these: for Ratio: HDAC1/HDAC6: ratio of IC50 HDAC1 to IC50 HDAC6.

Another data set deals with HDAC1 (Homo sapiens, UniProt Q13547). The data set can be described thus: Inhibition of recombinant HDAC1. It is filed as biochemical. The conditions noted are these: read-out: IC50 (nM) HCAC1.
The subject of data set [2] is acetylated alpha-tubulin and acetylated histone H3 in LNCaP (human prostate cancer cells). The conditions noted are these: SAHA; literature cited, cells not given; cited from earlier work.
Data set [3] relates to LNCaP (human prostate adenocarcinoma) cells. The data set can be described thus: Cell growth and viability of LNCaP cells. It is filed as cell-based. Particulars: SAHA control. The protocol:
FIG. 3. Cell growth of HFS (normal) and LNCaP (transformed) cells treated with compound 8 over 72 h.
FIG. 4. Cell viability of HFS (normal) and LNCaP (transformed) cells treated with compound 8 over 72 h.
as §1
The effect of compound 8 on the cell growth and viability of normal (HFS, human foreskin fibroblast) and transformed (LNCaP, human prostate adenocarcinoma) cells cultured with 8, 16, 32 or 64 μM HPB for up to 72 h was evaluated.

Data set [4] has as its system acetylated alpha-tubulin and histones in CWR22 tumors and spleen. The data set can be described thus: Acetylated lysine patterns in CWR22 tumors and spleen. It is filed as in vivo, nude mice. The text has this: Tumors and spleen are removed from the animals, and histones and proteins are extracted for the detection of acetylated lysine patterns.
In data set [5] the test system is androgen-dependent CWR22 human prostate cancer xenograft. The data set is described as follows: CWR22 human prostate cancer xenograft in nude mice. Particulars: 21 days; daily 300 mg/kg compound 8 or weekly 3 mg/kg etoposide alone. It is filed as in vivo. (In general: A xenograft is tissue or cells of one species grown in another, often human tumour cells in immunodeficient mice.)

HDAC1, sequence (Q13547 whole entry): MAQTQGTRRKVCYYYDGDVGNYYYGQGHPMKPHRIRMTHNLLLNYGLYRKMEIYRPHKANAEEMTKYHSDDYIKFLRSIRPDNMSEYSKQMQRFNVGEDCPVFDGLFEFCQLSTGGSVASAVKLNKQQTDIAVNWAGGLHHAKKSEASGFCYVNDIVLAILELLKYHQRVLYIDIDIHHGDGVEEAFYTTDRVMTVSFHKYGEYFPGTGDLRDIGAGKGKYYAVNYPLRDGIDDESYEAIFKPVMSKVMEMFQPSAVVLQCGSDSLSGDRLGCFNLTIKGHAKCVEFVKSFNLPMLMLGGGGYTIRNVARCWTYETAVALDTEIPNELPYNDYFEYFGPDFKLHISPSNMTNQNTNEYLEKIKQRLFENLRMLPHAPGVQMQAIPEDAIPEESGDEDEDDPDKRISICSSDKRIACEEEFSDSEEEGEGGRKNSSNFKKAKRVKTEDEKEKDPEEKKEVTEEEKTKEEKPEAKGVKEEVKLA

One may read the IC50 as the midpoint of a concentration-inhibition curve. Consider `O=C(NO)c1ccc(CN(CCO)C(=O)c2ccccc2)cc1` [Compound 11, N-hydroxy-4-((N-(2-hydroxyethyl)-2-benzamido)methyl)benzamide], for which, in data set [1], the “accumulation of acetylated histones (H3)” value is “did not cause accumulation of actylated histones; also recorded: without induction of H3 acetylation” and the “accumulation of acetylated α-tubulin” value is recorded as “caused the accumulation of acetylated α-tubulin; also recorded: significant levels of tubulin acylation were present”. At HDAC6, the IC50 stood at 11 nM and the “Ratio: HDAC1/HDAC6” value is listed as 24.54. Besides, the IC50 at HDAC1 stood at 270 nM.
For `O=C(CCCCCCC(=O)Nc1ccccc1)NO` [SAHA, suberoylanilide hydroxamic acid, reference compound], in data set [2], the “accumulation of acetylated alpha-tubulin” value was “induced the accumulation of acetylated alpha-tubulin and histone H3”; the “accumulation of acetylated histone H3” value is “induced the accumulation of acetylated alpha-tubulin and histone H3”. Also, the “Ratio: HDAC1/HDAC6” value on HDAC6 is given as 3.09. In addition, the “death of LNCaP cells” value in data set [3] is listed as “kills LNCaP cells”.
Consider `O=C(CCCCCCC(=O)Nc1ccc([C@H]2O[C@@H](CSc3nc(-c4ccccc4)c(-c4ccccc4)o3)C[C@@H](c3ccc(CO)cc3)O2)cc1)NO` [Tubacin, reference compound], for which the IC50 on HDAC1 stood at 193 nM.
On to `COc1cc([C@@H]2c3cc4c(cc3[C@@H](O[C@@H]3O[C@@H]5CO[C@@H](C)O[C@H]5[C@H](O)[C@H]3O)[C@H]3COC(=O)[C@H]23)OCO4)cc(OC)c1O` [etoposide, reference compound], for which the “accumulation of histones in tumors, single agent” value in data set [4] (mice injected with compound 8 alone or etoposide) is recorded as “Increased levels of accumulation of histones”. Further, the “accumulation of acetylated alpha-tubulin in CWR22 tumors and spleen, single agent” value in data set [4] (mice treated with compound 8 or etoposide) was “increased accumulation of acetylated alpha-tubulin”. Besides, in data set [5], the “growth of established CWR22 tumors, single agent” value is listed as “no significant suppression of the growth” and the “weight loss, single agent” value is reported as “no weight loss”.
